Test results: US12390472B2 (SUZHOU SINOVENT PHARMACEUTICALS CO., LTD., priority 2018, dated 2025)

Key:
EZH2 enzyme complex = EZH2 enzyme complex (Homo sapiens (Human), UniProt Q15910); test: Test on EZH2 inhibitory activity (TR-FRET); assay type: biochemical; details: EZH2 enzyme complex 25 ng/uL, histone H3 peptide 4 uM, SAM 2 uM, 300 min; read-out: IC50 of EZH2 inhibition
WSU-DLCL2 = test: Methylated lysine of histone-H3 (H3K27Me3) detection by ELISA, WSU-DLCL2 cells; assay type: cell-based; details: Homo sapiens, WSUDLCL2, 168 h; WSU-DLCL2, 7 days treatment, H3K27Me3 normalized to total histone-3; read-out: IC50 of cell methylation, WSU-DLCL2
Experimental: (§1) The operations for adherent cells and suspension cells cultured in 96-well plates were slightly different after they had been treated with compound (4-fold dilution 20 uM-0.009 nM, 3 duplicate wells) for 7 days, and the operations are summarized as follows: For adherent cells, after discarding the medium, 75 uL of 1-fold hypotonic lysis buffer (10 mM Tris-HCl, pH 7.5, containing halt protease inhibitor and PMSF with a final concentration of 1 mM) was added; the plate was frozen at −80° C. for at least 1 h or overnight; once the plate was taken away from the −80° C. environment, 120 uL (to a final volume of about 195 uL) of 1-fold hypotonic lysis buffer (containing protease inhibitor) was added, and the plate was thawed at room temperature and shaken for 2 min for mixing; and 8 uL (to a final volume of about 203 uL) of 2.5 M NaCl was added to each well to a final NaCl concentration of 100 mM and then the plate was shaken for an additional 2 min for mixing.
(§2) For suspension cells (final volume of medium was 100 uL/well), 25 uL of 5-fold hypotonic lysis buffer (50 mM Tris-HCl, pH 7.5, containing halt protease inhibitor and PMSF with a final concentration of 1 mM) was added, and the plate was frozen at −80° C. for at least 1 h or overnight. Once the plate was taken away from the −80° C. environment, 20 uL of 0.625 M NaCl was added to each well to a final NaCl concentration of about 100 mM, and the mixture was mixed well.
(§3) 75 uL or 100 uL of sample (with duplicate wells provided) was added to two 96-well ELISA plates (ThermoFisher Scientific; Immulon 4HBX 3885) and the plates were coated with total protein lysate and incubated overnight at 4° C. 50 uL of lysate was retained for protein quantitation if necessary. The sealing of the plates must be ensured. The plates were washed twice with 300 uL of 1×PBST (PBS containing 0.05% Tween 20) per well. Each well was blocked with 300 uL of dilution (PBS+2% BSA+0.05% Tween 20), incubated for 2 h at room temperature, and washed twice with 1×PBST. Primary antibodies were diluted with a dilution solution containing 1% BSA+0.05% Tween 20. 75-100 uL of anti-H3K27Me3 antibody (CST; 9733; 50% glycerol stock, 1:1,000) or anti-total histone-3 antibody (Abcam; ab1791; 50% glycerol stock, 1:10,000) was added to each well. The plates were incubated for 90 min at room temperature or incubated overnight at 4° C. The plates were washed three times with 1×PBST. 75-100 uL of anti-Rb-IgG-HRP secondary antibody (Cell Signaling Technology; 7074) was added per well, 1:2000 diluted secondary antibody for anti-H3K 27Me3 plate and 1:6000 diluted secondary antibody for anti-histone total histone-3 plate. The plates were incubated at room temperature for 90 min. The plate assayed with anti-histone-3 antibody was used to normalize the data for the corresponding plate assayed with anti-H3K 27me3. The plates must be washed at least three times with 1×PBST after primary or secondary antibody incubation. The plates were assayed by adding 75-100 uL of 3,3′,5,5′-tetramethylbenzidine substrate (CST or ThermoFisher Scientific; TMBS) per well and incubated away from light for 30 min at 37° C. The reaction was terminated by adding 100 uL of 0.5 M H2SO4 per well. The absorbance was read at 450 nm. Curve fitting was performed using Graph Pad program.

Pfeiffer = test: Methylated lysine of histone-H3 (H3K27Me3) detection by ELISA, Pfeiffer cells; assay type: cell-based, human; details: Homo sapiens, 168 h, 7 days treatment, H3K27Me3 normalized to total histone-3, read-out: IC50 of cell methylation, Pfeiffer
Experimental: as §1, §2, §3

Sequence of EZH2 enzyme complex (Q15910 whole entry): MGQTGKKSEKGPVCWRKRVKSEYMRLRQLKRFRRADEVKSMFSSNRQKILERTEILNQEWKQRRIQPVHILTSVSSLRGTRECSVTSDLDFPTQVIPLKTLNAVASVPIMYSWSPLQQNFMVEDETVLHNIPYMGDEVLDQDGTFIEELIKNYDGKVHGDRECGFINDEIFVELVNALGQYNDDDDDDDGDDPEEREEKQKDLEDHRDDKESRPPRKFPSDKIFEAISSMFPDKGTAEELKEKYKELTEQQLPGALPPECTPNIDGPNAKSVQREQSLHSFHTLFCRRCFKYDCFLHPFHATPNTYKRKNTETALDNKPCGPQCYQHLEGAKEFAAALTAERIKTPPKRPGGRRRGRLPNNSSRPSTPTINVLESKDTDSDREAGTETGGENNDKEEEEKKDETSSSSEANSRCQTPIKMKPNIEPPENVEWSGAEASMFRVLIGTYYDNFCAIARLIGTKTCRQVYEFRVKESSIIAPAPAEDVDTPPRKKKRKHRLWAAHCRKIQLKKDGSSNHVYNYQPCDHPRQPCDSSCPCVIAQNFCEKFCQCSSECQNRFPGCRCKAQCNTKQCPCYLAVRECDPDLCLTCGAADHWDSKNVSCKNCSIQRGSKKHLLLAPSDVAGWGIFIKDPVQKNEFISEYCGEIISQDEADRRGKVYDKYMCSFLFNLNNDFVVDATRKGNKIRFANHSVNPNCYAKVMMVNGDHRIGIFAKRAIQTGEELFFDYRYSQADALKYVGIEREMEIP
Sequence of EZH2 enzyme complex (O75530 whole entry partner): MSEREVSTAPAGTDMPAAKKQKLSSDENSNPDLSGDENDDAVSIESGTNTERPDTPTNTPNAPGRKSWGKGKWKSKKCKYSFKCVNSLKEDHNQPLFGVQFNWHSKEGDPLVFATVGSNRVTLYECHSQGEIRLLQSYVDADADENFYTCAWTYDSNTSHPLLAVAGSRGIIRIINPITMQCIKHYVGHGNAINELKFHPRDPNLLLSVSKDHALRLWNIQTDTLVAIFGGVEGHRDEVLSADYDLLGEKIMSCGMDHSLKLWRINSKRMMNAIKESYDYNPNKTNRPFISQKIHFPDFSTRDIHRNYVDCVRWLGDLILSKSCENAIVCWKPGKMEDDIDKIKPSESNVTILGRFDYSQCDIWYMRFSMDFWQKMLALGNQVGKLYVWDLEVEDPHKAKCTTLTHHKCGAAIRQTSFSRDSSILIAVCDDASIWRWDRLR
Sequence of EZH2 enzyme complex (Q15022 whole entry partner): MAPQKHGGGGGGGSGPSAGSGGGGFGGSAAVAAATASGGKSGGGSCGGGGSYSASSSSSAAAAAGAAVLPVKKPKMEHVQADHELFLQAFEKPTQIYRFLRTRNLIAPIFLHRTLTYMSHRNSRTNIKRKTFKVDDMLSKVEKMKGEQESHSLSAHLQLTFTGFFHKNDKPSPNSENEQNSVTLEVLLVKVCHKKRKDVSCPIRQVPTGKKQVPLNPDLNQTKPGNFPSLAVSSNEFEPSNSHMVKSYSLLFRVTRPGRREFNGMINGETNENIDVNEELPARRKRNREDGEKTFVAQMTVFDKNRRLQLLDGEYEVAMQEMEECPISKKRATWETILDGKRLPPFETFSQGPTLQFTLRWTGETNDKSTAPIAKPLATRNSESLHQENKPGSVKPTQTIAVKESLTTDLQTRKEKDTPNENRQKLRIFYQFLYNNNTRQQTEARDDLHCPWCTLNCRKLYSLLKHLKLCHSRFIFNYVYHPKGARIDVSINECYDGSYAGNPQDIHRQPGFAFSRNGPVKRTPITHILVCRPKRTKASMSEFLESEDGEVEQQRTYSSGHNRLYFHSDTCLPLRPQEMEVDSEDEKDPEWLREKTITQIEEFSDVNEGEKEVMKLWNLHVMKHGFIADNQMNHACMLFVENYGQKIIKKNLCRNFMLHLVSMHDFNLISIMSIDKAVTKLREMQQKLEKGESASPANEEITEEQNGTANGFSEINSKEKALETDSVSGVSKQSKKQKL

SMILES	IC50 (EZH2 enzyme complex) [nM]	IC50 (WSU-DLCL2) [nM]	IC50 (Pfeiffer) [nM]
CCN(c1cc(OC2CCC2)cc(C(=O)NCc2c(C)cc(C)[nH]c2=O)c1C)C1CCOCC1 [Example 1, 5-cyclobutoxy-N-((4,6-dimethyl-2-oxo-1,2-dihydropyridin-3-yl)methyl)-3-(ethyl(tetrahydro-2H-pyran-4-yl)amino)-2-methylbenzamide]	10 to 100	50 to 500	< 50
CCN(c1cc(OC2CC(C)C2)cc(C(=O)NCc2c(C)cc(C)[nH]c2=O)c1C)C1CCOCC1 (stereo not shown) [Example 2, N-((4,6-dimethyl-2-oxo-1,2-dihydropyridin-3-yl)methyl)-3-(ethyl(tetrahydro-2H-pyran-4-yl)amino)-2-methyl-5-(3-methylcyclobutoxy)benzamide]	10 to 100	500 to 1000	50 to 500
CCN(c1cc(OC2CC(F)(F)C2)cc(C(=O)NCc2c(C)cc(C)[nH]c2=O)c1C)C1CCOCC1 [Example 3, 5-(3,3-difluorocyclobutoxy)-N-((4,6-dimethyl-2-oxo-1,2-dihydropyridin-3-yl)methyl)-3-(ethyl(tetrahydro-2H-pyran-4-yl)amino)-2-methylbenzamide]	10 to 100	50 to 500	< 50
CCN(c1cc(O[C@H]2C[C@@H](CN3CCOCC3)C2)cc(C(=O)NCc2c(C)cc(C)[nH]c2=O)c1C)C1CCOCC1 [Example 6, N-((4,6-dimethyl-2-oxo-1,2-dihydropyridin-3-yl)methyl)-3-(ethyl(tetrahydro-2H-pyran-4-yl)amino)-2-methyl-5-(cis-3-(morpholinylmethyl)cyclobutoxy)benzamide]	10 to 100	50 to 500	< 50
CCN(c1cc(O[C@H]2C[C@H](CN3CCOCC3)C2)cc(C(=O)NCc2c(C)cc(C)[nH]c2=O)c1C)C1CCOCC1 [Example 7, N-((4,6-dimethyl-2-oxo-1,2-dihydropyridin-3-yl)methyl)-3-(ethyl(tetrahydro-2H-pyran-4-yl)amino)-2-methyl-5-(trans-3-(morpholinylmethyl)cyclobutoxy)benzamide]	10 to 100	50 to 500	< 50
CCN(c1cc(SC2CCC2)cc(C(=O)NCc2c(C)cc(C)[nH]c2=O)c1C)C1CCOCC1 [Example 8, 5-(cyclobutylthio)-N-((4,6-dimethyl-2-oxo-1,2-dihydropyridin-3-yl)methyl)-3-(ethyl(tetrahydro-2H-pyran-4-yl)amino)-2-methylbenzamide]	10 to 100	> 1000	50 to 500
CCN(c1cc([S+]([O-])C2CCC2)cc(C(=O)NCc2c(C)cc(C)[nH]c2=O)c1C)C1CCOCC1 (stereo not shown) [Example 9, 5-(cyclobutylsulfinyl)-N-((4,6-dimethyl-2-oxo-1,2-dihydropyridin-3-yl)methyl)-3-(ethyl(tetrahydro-2H-pyran-4-yl)amino)-2-methylbenzamide]	100 to 1000	500 to 1000	500 to 1000
CCN(c1cc(S(=O)(=O)C2CCC2)cc(C(=O)NCc2c(C)cc(C)[nH]c2=O)c1C)C1CCOCC1 [Example 10, 5-(cyclobutylsulfonyl)-N-((4,6-dimethyl-2-oxo-1,2-dihydropyridin-3-yl)methyl)-3-(ethyl(tetrahydro-2H-pyran-4-yl)amino)-2-methylbenzamide]	100 to 1000	> 1000	500 to 1000
CCN(c1cc(OC2CCC2)cc(C(=O)NCc2c(C)cc(C)[nH]c2=O)c1Cl)C1CCOCC1 [Example 11, 2-chloro-5-cyclobutoxy-N-((4,6-dimethyl-2-oxo-1,2-dihydropyridin-3-yl)methyl)-3-(ethyl(tetrahydro-2H-pyran-4-yl)amino) benzamide]	10 to 100	50 to 500	50 to 500
CCN(c1cc(OC2CC(C)(C)C2)cc(C(=O)NCc2c(C)cc(C)[nH]c2=O)c1C)C1CCOCC1 [Example 12, N-((4,6-dimethyl-2-oxo-1,2-dihydropyridin-3-yl)methyl)-5-(3,3-dimethylcyclobutoxy)-3-(ethyl(tetrahydro-2H-pyran-4-yl)amino)-2-methylbenzamide]	10 to 100	> 1000	50 to 500
CCN(c1cc(OC2CC(C(=O)N3CCOCC3)C2)cc(C(=O)NCc2c(C)cc(C)[nH]c2=O)c1C)C1CCOCC1 (stereo not shown) [Example 13, N-((4,6-dimethyl-2-oxo-1,2-dihydropyridin-3-yl)methyl)-3-(ethyl(tetrahydro-2H-pyran-4-yl)amino)-2-methyl-5-(3-(morpholine-4-carbonyl)cyclobutoxy)benzamide]	10 to 100	50 to 500	< 50
CCN(c1cc(C2CC2)cc(C(=O)NCc2c(C)cc(C)[nH]c2=O)c1C)C1CCOCC1 [Example 14, 5-cyclopropyl-N-((4,6-dimethyl-2-oxo-1,2-dihydropyridin-3-yl)methyl)-3-(ethyl(tetrahydro-2H-pyran-4-yl)amino)-2-methylbenzamide]		50 to 500	< 50
CCN(c1cc(O[C@H]2C[C@@H](N3C[C@@H](C)O[C@@H](C)C3)C2)cc(C(=O)NCc2c(C)cc(C)[nH]c2=O)c1C)[C@H]1C[C@@H](C)O[C@@H](C)C1 [Example 33]	100 to 1000		50 to 500
CCN(c1cc(O[C@H]2C[C@H](N3C[C@@H](C)O[C@@H](C)C3)C2)cc(C(=O)NCc2c(C)cc(C)[nH]c2=O)c1C)[C@H]1CC[C@H](N(C)CCOC)CC1 [Example 52, N-((4,6-dimethyl-2-oxo-1,2-dihydropyridin-3-yl)methyl)-5-(trans-3-(cis-2,6-dimethylmorpholinyl)cyclobutoxy)-3-(ethyl(trans-4-((2-methoxyethyl)(methyl)amino)cyclohexyl)amino)-2-methylbenzamide]	10 to 100	500 to 1000	
CCN(c1cc(O[C@H]2C[C@H](N3CC4CC(C3)O4)C2)cc(C(=O)NCc2c(C)cc(C)[nH]c2=O)c1Cl)C1CCOCC1 [Example 55]	10 to 100	50 to 500	
CCN(c1cc(C2CC2CN2CCN(C(=O)OC)CC2)cc(C(=O)NCc2c(C)cc(C)[nH]c2=O)c1C)C1CCOCC1 (stereo not shown) [Example 80, methyl 4-((2-(3-(((4,6-dimethyl-2-oxo-1,2-dihydropyridin-3-yl)methyl)carbamoyl)-5-(ethyl(tetrahydro-2H-pyran-4-yl)amino)-4-methylphenyl)cyclopropyl)methyl)piperazine-1-carboxylate]	10 to 100	< 50	
CCN(c1cc(C2CC2CN2CCOCC2)cc(C(=O)NCc2c(C)cc(C)[nH]c2=O)c1C)[C@H]1CC[C@H](N(C)CCOC)CC1 (stereo partly drawn) [Example 82, N-((4,6-dimethyl-2-oxo-1,2-dihydropyridin-3-yl)methyl)-3-(ethyl(trans-4-((2-methoxyethyl)(methyl)amino)cyclohexyl)amino)-2-methyl-5-(2-(morpholinylmethyl)cyclopropyl)benzamide]	10 to 100	50 to 500	
CCN(c1cc(C2CC2CN2CCNCC2)cc(C(=O)NCc2c(C)cc(C)[nH]c2=O)c1Cl)C1CCOCC1 (stereo not shown) [Example 83, 2-chloro-N-((4,6-dimethyl-2-oxo-1,2-dihydropyridin-3-yl)methyl)-3-(ethyl(tetrahydro-2H-pyran-4-yl)amino)-5-(2-(piperazin-1-ylmethyl)cyclopropyl)benzamide]	10 to 100	> 1000	
CCN(c1cc(C2CC2CN2C[C@@H](C)O[C@@H](C)C2)cc(C(=O)NCc2c(C)cc(C)[nH]c2=O)c1Cl)C1CCOCC1 (stereo partly drawn) [Example 85, 2-chloro-N-((4,6-dimethyl-2-oxo-1,2-dihydropyridin-3-yl)methyl)-5-(2-(((2S,6R)-2,6-dimethylmorpholinyl)methyl)cyclopropyl)-3-(ethyl(tetrahydro-2H-pyran-4-yl)amino)benzamide]	100 to 1000	500 to 1000	
